Test results: patent US20260294915A1, “COMBINATION THERAPY COMPRISING A MAT2A INHIBITOR AND A TOPOISOMERASE INHIBITOR, A SPLICING INHIBITOR SULFONAMIDE, OR A KIF18 INHIBITOR” (IDEAYA BIOSCIENCES, INC., priority 2023, published 2026)

Columns and labels:
[1] = system: RT112/84 human bladder tumor cell-derived xenograft (CDX) model; assay: Anti-tumor activity in RT112/84 mouse xenograft (CDX) model (Example 7); format: in vivo; settings: Compound A 10 mg/kg oral once per day
Protocol: (§1) All mouse studies were approved by the Institutional Animal Care and Use Committee (IACUC) based on guidelines from the National Institutes of Health (NIH). Mice were maintained under pathogen-free conditions, and food and water were provided ad libitum.
The anti-tumor effect of Compound A and irinotecan hydrochloride as single-agents or in combination was assessed in the RT112/84 human bladder tumor cell-derived xenograft (CDX) model. Cells were expanded in RPMI-1640 (Gibco, Catalog Number 11875093) with 10% fetal bovine serum. These cells were free of mycoplasma and authenticated by STR profiling. Five million cells in log growth phase were resuspended in Hanks Balanced Salt Solution containing 50% Matrigel and implanted subcutaneously into the flank of each recipient female Crl:NU-Foxnlnu mouse. Mice were housed in microisolator cages with corn cob bedding with additional enrichment consisting of sterile nesting material (Innovive) and Bio-huts (Bio-Serv). Water (Innovive) and diet (Teklad Global 19% Protein Extruded Diet 2919, Irradiated) were provided ad libitum. The environment was maintained on a 12-hour light cycle at approximately 68-72° F. and 40-60% relative humidity.
Tumor Volume (TV) was calculated using the following formula: TV (mm^3)=(width×width×length)/2. Tumor growth inhibition (TGI) was calculated by [(TV controlfinal−TV treatedfinal)/(TV controlfinal−TV controlinitial)×100]. TV was analyzed for statistical significance utilizing GraphPad Prism version 10.0.3. Repeated Measures 2-Way ANOVA with Tukey's Multiple Comparisons was utilized, and P-values were derived from data collected on Day 14 (date of Vehicle group termination) and were considered statistically significant if less than 0.05. Tumor regression was calculated by using the percent change in tumor volume from the final tumor volume measurement from Day 73 when compared to the initial tumor volume from Day 1. Tumor regression was defined as reduced TV on Day 73 compared to Day 1. Tumor regression rate was defined as the percentage of animals per group with tumor regression.
Mean tumor volume at dosing start was approximately 249 mm^3, with ten mice randomized to each treatment group. Mice were dosed orally, once per day, with Vehicle, Compound A at 10 mg/kg, or dosed for 3 consecutive days followed by 4 days holiday by intraperitoneal (IP) injection of Compound B at 5 mg/kg, or combination of Compound A and Compound B. The vehicle group was a combination of Vehicle A (for Compound A, 0.5% 400 cps methylcellulose with 0.5% Tween-80 in sterile water) and Vehicle B (for irinotecan hydrochloride, Saline).

[2] = system: MKN45 (RCB1001) human gastric tumor cell-derived xenograft (CDX) model; assay: Anti-tumor activity in MKN45 gastric mouse xenograft (CDX) model (Example 8); format: in vivo; settings: Compound A 10 mg/kg oral once per day
Protocol: as §1
The anti-tumor effect of Compound A and irinotecan hydrochloride as single-agents or in combination was assessed in the MKN45 (RCB1001) human gastric tumor cell-derived xenograft (CDX) model. MKN45 was expanded in RPMI1640 with 10% fetal bovine serum. Cells were free of mycoplasma and authenticated by STR profiling, and ten million cells in log growth phase were resuspended in Hanks Balanced Salt Solution containing 50% Matrigel and implanted subcutaneously into the flank of each recipient female Crl:NU-Foxn1nu mouse. Mice were housed in microisolator cages with corn cob bedding with additional enrichment consisting of sterile nesting material (Innovive) and Bio-huts (Bio-Serv). Water (Innovive) and diet (Teklad Global 19% Protein Extruded Diet 2919, Irradiated) were provided ad libitum. The environment was maintained on a 12-hour light cycle at approximately 68-72° F. and 40-60% relative humidity.
Tumor Volume (TV) was calculated using the following formula: TV (mm^3)=(width×width×length)/2. Tumor growth inhibition (TGI) was calculated by [(TV controlfinal−TV treatedfinal)/(TV controlfinal−TV controlinitial)×100]. TV was analyzed for statistical significance utilizing GraphPad Prism version 10.2.2. Repeated Measures 2-Way ANOVA with Dunnet's Multiple Comparisons was utilized, and P-values were derived from data collected on the date of Vehicle group termination and were considered statistically significant if less than 0.05.
Mean tumor volume at dosing start was approximately 190 mm^3, with six mice randomized to each treatment group. Mice were dosed orally, once per day, with Vehicle, Compound A at 10 mg/kg, or dosed for 3 consecutive days followed by 4 days holiday by intraperitoneal (IP) injection of Compound B at 5 mg/kg or 10 mg/kg, or combination of Compound A and Compound B. The vehicle group was a combination of Vehicle A (for Compound A, 0.5% 400 cps methylcellulose with 0.5% Tween-80 in sterile water) and Vehicle B (for irinotecan hydrochloride, Saline).

[3] = system: 15 pancreatic, non-small cell lung, and bladder cancer cell lines: 10 MTAP null and 5 MTAP wild-type; assay: 10-day proliferation screen with Compound A pre-treatment, panel summary (Example 3); format: cell-based
Protocol: A 10-day proliferation screen was performed in 15 pancreatic, non-small cell lung, and bladder cancer cell lines: 10 MTAP null and 5 MTAP wild-type. Optimal cell seeding for all cell lines was determined by assessing the growth over a range of seeding densities in a 384-well format to identify conditions that permitted proliferation for 10 days. Cells were then plated at the optimal seeding density in the presence of 20-150 nM of Compound A or DMSO vehicle control. Cells were incubated at 37° C. with 5% CO2 for 4 days to allow for target engagement of the pre-treatment compound. Maintaining the pre-treatment condition, cells were also treated with an 11-point, three-fold titration series of compounds from a chemically diverse library of 424 compounds. […] A plate of cells was harvested at the time of combination compound addition to quantify the number of cells at the start of the combination (T0). For cell quantification, the harvested cells were lysed with CellTiter-Glo (CTG) (Promega) reagent according to the manufacturer's protocol and the chemiluminescent signal was detected on a Synergy Neo plate reader (ThermoFisher, serial #140715A). […] Cells were then lysed with CTG and the chemiluminescent signal was measured. CTG values obtained after the 10-day treatment were background subtracted, expressed as a percent of the T0 value, and plotted against compound concentration. […]

cell lines with growth IC50 shifts ≥2-fold ([3]; MTAP-deficient cell lines) | cell lines with growth IC50 shifts ≥2-fold ([3]; wild type cell lines) | SMILES | Day 14 TGI [1] | Day 14 TV (mean) ([1]; initial TV 249, vehicle 1069) | TGI ([1]; irinotecan 5 mg/kg IP 3 days on/4 days off) | Day 25 TGI [2] | Tumor Regression Rate on Day 25 [2] | Day 25 TV (mean) ([2]; initial TV 191, vehicle 1396) | TGI ([2]; irinotecan 5 or 10 mg/kg IP 3 days on/4 days off)
– | – | Nc1nc(=O)n(-c2ccccc2Cl)c2nc(C(F)(F)F)ccc12 [Compound A] | 53% | 632 mm^3 | 53% | 56% | 0% | 726 mm^3 | 56%
7/10 | 1/5 | NS(=O)(=O)c1ccc(S(=O)(=O)Nc2cccc3c(Cl)c[nH]c23)cc1 [Indisulam, N-(3-chloro-1H-indol-7-yl)benzene-1,4-disulfonamide] | – | – | – | – | – | – | –
